Reference: patent US9611256B2, “Alkyne-, azide- and triazole-containing flavonoids as modulators for multidrug resistance in cancers” (The Hong Kong Polytechnic University, priority 2012, dated 2017)
Like-named read-outs stand apart in the source and are kept apart here.

Columns and labels:
in vitro = conditions: mouse
MRP1 [1] = molecular target: T1, MRP1 (Homo sapiens, UniProt P33527); assay: cell-based
[2] = tested on: P-gp, MRP1 and BCRP transporters; assay: Selectivity for ABC transporters, determined from % of reversion (Tables 1 and 2); format: cell-based, human; conditions: determined from % of reversion in Table 1 (>80% strongly, 79-50% moderately selective)
How it was run: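 Compounds are grouped as acting on one, two or all three of P-gp, MRP1 and BCRP. The basis is percent reversion: 79-50% means moderate selectivity, above 80% strong selectivity.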

BCRP [3] = molecular target: T2, BCRP (Homo sapiens, UniProt Q9UNQ0); assay: Reversal of BCRP-mediated topotecan resistance in MCF7-MX100 cells (cell proliferation assay); conditions: (IC50 towards L929 or Raw264.7)/(EC50 for reversing drug resistance)
T2 sequence (Q9UNQ0 1-655): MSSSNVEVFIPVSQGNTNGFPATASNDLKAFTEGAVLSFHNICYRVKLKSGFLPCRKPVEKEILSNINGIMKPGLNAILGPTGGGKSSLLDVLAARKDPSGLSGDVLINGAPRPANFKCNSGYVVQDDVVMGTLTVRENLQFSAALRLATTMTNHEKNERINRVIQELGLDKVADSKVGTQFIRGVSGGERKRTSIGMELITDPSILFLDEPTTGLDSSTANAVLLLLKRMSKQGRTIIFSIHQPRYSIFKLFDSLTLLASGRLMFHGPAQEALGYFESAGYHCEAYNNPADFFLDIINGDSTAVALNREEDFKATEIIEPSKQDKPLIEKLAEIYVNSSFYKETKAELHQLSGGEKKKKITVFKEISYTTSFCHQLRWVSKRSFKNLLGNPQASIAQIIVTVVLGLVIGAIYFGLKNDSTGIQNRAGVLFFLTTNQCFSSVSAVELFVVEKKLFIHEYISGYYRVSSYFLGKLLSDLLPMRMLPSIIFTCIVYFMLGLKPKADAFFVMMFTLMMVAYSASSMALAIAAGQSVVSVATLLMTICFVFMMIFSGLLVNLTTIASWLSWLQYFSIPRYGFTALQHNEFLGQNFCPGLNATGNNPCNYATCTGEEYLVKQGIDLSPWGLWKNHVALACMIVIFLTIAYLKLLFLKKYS

MRP1 [4] = molecular target: T1, MRP1; assay: Reversal of MRP1-mediated DOX resistance in 2008/MRP1 cells (cell proliferation assay); conditions: (IC50 towards L929 or Raw264.7)/(EC50 for reversing drug resistance)
P-gp [5] = molecular target: T3, P-gp (Homo sapiens, UniProt P08183); assay: cell-based
T3 sequence (P08183 whole entry): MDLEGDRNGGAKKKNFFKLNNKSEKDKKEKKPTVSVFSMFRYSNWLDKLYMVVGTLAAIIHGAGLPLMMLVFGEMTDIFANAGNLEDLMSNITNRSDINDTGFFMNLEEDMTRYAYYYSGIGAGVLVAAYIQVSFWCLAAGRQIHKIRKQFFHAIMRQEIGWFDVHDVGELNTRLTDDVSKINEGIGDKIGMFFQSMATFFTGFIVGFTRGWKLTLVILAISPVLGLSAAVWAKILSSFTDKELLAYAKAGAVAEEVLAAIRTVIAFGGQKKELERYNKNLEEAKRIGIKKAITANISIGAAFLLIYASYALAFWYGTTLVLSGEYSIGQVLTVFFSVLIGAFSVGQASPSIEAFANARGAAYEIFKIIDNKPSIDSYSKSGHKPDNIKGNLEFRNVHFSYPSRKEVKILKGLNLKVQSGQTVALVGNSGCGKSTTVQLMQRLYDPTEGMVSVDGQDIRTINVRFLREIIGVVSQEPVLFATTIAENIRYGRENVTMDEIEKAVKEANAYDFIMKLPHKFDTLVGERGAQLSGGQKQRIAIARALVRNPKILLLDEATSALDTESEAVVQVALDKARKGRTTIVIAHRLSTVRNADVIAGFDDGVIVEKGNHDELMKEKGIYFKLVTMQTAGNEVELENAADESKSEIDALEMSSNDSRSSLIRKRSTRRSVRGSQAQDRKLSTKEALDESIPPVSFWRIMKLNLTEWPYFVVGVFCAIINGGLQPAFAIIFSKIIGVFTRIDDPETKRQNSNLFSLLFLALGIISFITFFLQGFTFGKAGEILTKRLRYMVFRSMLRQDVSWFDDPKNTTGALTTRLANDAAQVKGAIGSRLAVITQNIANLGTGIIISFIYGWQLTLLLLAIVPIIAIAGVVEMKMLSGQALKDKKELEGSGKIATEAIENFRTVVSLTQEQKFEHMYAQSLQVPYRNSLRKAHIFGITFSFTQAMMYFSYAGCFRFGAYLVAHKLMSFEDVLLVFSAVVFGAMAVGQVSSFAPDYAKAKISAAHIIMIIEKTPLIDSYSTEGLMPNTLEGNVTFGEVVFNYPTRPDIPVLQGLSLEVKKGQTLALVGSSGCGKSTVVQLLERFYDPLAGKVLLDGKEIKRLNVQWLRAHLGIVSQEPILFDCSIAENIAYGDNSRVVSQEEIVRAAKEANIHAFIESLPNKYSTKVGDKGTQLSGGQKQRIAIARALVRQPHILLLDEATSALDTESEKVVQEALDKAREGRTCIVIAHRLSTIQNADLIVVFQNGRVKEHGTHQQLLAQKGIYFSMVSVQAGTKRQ

MRP1 [6] = molecular target: T1, MRP1; assay: cell-based; remark: listed apart in the source
MRP1 [7] = molecular target: T1, MRP1; assay: Reversal of MRP1-mediated vincristine resistance in 2008/MRP1 cells (cell proliferation assay); conditions: (IC50 towards L929 or Raw264.7)/(EC50 for reversing drug resistance)
P-gp [8] = molecular target: T3, P-gp; conditions: mouse (L929 or Raw264.7) and human (LCC6MDR), 5 days
BCRP [9] = molecular target: T2, BCRP; assay: cell-based
2008/MRP1 = assay: Cell proliferation assay, 2008/MRP1

T1 sequence (P33527 whole entry): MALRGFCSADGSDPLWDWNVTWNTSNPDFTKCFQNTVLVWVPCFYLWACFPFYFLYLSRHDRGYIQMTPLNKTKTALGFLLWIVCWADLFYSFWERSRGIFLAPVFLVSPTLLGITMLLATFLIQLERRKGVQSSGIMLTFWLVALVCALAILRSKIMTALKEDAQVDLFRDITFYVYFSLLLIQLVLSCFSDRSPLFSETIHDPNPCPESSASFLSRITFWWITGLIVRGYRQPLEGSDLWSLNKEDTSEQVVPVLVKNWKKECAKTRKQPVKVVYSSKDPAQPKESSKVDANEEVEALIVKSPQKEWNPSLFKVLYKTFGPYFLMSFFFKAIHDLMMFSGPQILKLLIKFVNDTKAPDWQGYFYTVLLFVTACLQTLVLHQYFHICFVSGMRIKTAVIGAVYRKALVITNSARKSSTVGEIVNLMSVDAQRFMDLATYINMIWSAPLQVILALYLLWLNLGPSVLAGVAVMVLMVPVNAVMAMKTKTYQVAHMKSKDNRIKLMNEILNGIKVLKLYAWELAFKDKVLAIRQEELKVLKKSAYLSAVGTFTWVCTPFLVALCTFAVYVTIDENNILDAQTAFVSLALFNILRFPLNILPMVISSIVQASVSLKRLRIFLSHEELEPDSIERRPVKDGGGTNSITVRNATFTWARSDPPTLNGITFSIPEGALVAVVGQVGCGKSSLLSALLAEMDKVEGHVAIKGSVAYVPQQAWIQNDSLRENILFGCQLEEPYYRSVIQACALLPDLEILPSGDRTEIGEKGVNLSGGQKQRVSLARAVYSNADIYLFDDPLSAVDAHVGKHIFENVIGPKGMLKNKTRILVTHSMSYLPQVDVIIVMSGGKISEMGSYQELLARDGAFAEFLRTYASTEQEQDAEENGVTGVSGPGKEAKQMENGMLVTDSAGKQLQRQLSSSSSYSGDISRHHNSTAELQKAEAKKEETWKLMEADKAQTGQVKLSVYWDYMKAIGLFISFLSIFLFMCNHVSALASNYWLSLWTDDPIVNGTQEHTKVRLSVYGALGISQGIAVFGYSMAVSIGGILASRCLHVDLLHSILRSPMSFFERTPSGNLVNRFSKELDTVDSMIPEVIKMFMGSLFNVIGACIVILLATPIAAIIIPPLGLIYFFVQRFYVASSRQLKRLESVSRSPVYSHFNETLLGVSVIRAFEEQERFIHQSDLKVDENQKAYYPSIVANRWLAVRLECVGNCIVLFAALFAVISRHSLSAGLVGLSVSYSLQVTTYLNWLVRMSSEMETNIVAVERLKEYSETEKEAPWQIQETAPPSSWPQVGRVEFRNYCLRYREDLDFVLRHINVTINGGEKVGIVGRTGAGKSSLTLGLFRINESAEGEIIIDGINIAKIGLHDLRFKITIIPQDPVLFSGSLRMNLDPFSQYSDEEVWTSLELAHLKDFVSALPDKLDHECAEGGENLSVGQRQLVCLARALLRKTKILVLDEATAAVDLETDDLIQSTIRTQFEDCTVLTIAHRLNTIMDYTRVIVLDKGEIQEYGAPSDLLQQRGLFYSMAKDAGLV

Compound	IC50 at 5 days (in vitro) [nM]	EC50 (MRP1 [1]) [nM]	Selectivity for ABC transporters (P-gp, MRP1, BCRP) [2]	Topotecan resistance of MCF7-MX100 Therapeutic index (BCRP [3])	DOX resistance of 2008/MRP1 Therapeutic index (MRP1 [4])	EC50 (P-gp [5]) [nM]	EC50 (MRP1 [6]) [nM]	Vincristine resistance of 2008/MRP1 Therapeutic index (MRP1 [7])	Paclitaxel resistance of LCC6MDR Therapeutic index (P-gp [8])	EC50 (BCRP [9]) [nM]	IC50 (2008/MRP1; Homo sapiens, 2008/MRP1, read-out: IC50 of anticancer drug, 2008/MRP1) [nM]	fold more resistance of 2008/MRP1 than parental 2008/P (2008/MRP1; without modulator)
COCOc1cc(O)c2c(=O)cc(-c3ccc(OCCCc4cn(CCOCCOc5ccc(-c6cc(=O)c7ccccc7o6)cc5)nn4)cc3)oc2c1 [Ac4(5OH)Az1, 5-Hydroxy-7-(methoxymethoxy)-2-(4-(3-(1-(2-(2-(4-(4-oxo-4H-chromen-2-yl)phenoxy)ethoxy)ethyl)-1H-1,2,3-triazol-4-yl)propoxy)phenyl)-4H-chromen-4-one]	> 100000	110 ± 15	MRP1- and BCRP-dual selectivity	>1960.8	>909.1	–	–	–	–	–	–	–
Cc1ccc2oc(-c3ccc(OCCCCc4cn(CCOCCOc5ccc(-c6cc(=O)c7cc(F)ccc7o6)cc5)nn4)cc3)cc(=O)c2c1 [Ac5Az7, 6-Fluoro-2-(4-(2-(2-(4-(4-(4-(6-methyl-4-oxo-4H-chromen-2-yl)phenoxy)butyl)-1H-1,2,3-triazol-1-yl)ethoxy)ethoxy)phenyl)-4H-chromen-4-one]	> 100000	–	–	–	–	157	–	–	–	–	–	–
Cc1ccc2oc(-c3ccc(OCCCCc4cn(CCOCCOc5ccc6c(=O)cc(-c7ccccc7)oc6c5)nn4)cc3)cc(=O)c2c1 [Ac5Az11, 6-Methyl-2-(4-(4-(1-(2-(2-((4-oxo-2-phenyl-4H-chromen-7-yl)oxy)ethoxy)ethyl)-1H-1,2,3-triazol-4-yl)butoxy)phenyl)-4H-chromen-4-one]	> 100000	–	–	–	–	160 ± 21	135 ± 10	–	–	–	–	–
O=c1cc(-c2ccc(OCCOCCn3cc(CCCCOc4ccc5c(=O)cc(-c6ccccc6)oc5c4)nn3)cc2)oc2ccccc12 [Ac12Az1, 7-(4-(1-(2-(2-(4-(4-Oxo-4H-chromen-2-yl)phenoxy)ethoxy)ethyl)-1H-1,2,3-triazol-4-yl)butoxy)-2-phenyl-4H-chromen-4-one]	> 100000	–	MRP1- and BCRP-dual selectivity	–	–	–	84 ± 11	>1190.5	–	–	–	–
Cc1ccc2oc(-c3ccc(OCCOCCOCCn4cc(CCCCOc5ccc6c(=O)cc(-c7ccccc7)oc6c5)nn4)cc3)cc(=O)c2c1 [Ac12Az3, 6-Methyl-2-(4-(2-(2-(2-(4-(4-((4-oxo-2-phenyl-4H-chromen-7-yl)oxy)butyl)-1H-1,2,3-triazol-1-yl)ethoxy)ethoxy)ethoxy)phenyl)-4H-chromen-4-one]	> 50000	–	multi-selectivity towards P-gp, MRP1 and BCRP transporters	–	>333.8	190	–	>613.5	>263.2	–	–	–
O=c1cc(-c2ccccc2)oc2cc(OCCCCc3cn(CCOCCOc4ccc(-c5cc(=O)c6cc(F)ccc6o5)cc4)nn3)ccc12 [Ac12Az7, 6-Fluoro-2-(4-(2-(2-(4-(4-((4-oxo-2-phenyl-4H-chromen-7-yl)oxy)butyl)-1H-1,2,3-triazol-1-yl)ethoxy)ethoxy)phenyl)-4H-chromen-4-one]	> 100000	–	MRP1- and BCRP-dual selectivity	–	>580.4	–	93.3 ± 20.5	>1071.8	–	–	–	–
O=c1cc(-c2ccccc2)oc2cc(OCCCCc3cn(CCOCCOc4ccc(-c5oc6ccccc6c(=O)c5OCc5ccccc5)cc4)nn3)ccc12 [Ac12Az10, 3-(Benzyloxy)-2-(4-(2-(2-(4-(4-((4-oxo-2-phenyl-4H-chromen-7-yl)oxy)butyl)-1H-1,2,3-triazol-1-yl)ethoxy)ethoxy)phenyl)-4H-chromen-4-one]	> 100000	–	Pgp- and BCRP-dual selectivity	>2924.0	–	330	–	–	>303.0	–	–	–
O=c1cc(-c2ccccc2)oc2cc(OCCCCc3cn(CCOCCOc4ccc5c(=O)cc(-c6ccccc6)oc5c4)nn3)ccc12 [Ac12Az11, 7-(2-(2-(4-(4-((4-Oxo-2-phenyl-4H-chromen-7-yl)oxy)butyl)-1H-1,2,3-triazol-1-yl)ethoxy)ethoxy)-2-phenyl-4H-chromen-4-one]	> 100000	–	MRP1- and BCRP-dual selectivity	–	>877.2	–	169	>591.7	–	30	–	–
O=c1cc(-c2ccccc2)oc2cc(OCCCCc3cn(CCOCCOCCOc4ccc5c(=O)cc(-c6ccccc6)oc5c4)nn3)ccc12 [Ac12Az12, 7-(2-(2-(2-(4-(4-((4-Oxo-2-phenyl-4H-chromen-7-yl)oxy)butyl)-1H-1,2,3-triazol-1-yl)ethoxy)ethoxy)ethoxy)-2-phenyl-4H-chromen-4-one]	> 100000	–	MRP1- and BCRP-dual selectivity	–	>740.7	–	168	>595.2	–	34	–	–
O=c1cc(-c2ccccc2)oc2cc(OCCOCc3cn(CCOCCOc4ccc(-c5oc6ccccc6c(=O)c5OCc5ccccc5)cc4)nn3)ccc12 [Ac13Az10, 3-(Benzyloxy)-2-(4-(2-(2-(4-((2-((4-oxo-2-phenyl-4H-chromen-7-yl)oxy)ethoxy)methyl)-1H-1,2,3-triazol-1-yl)ethoxy)ethoxy)phenyl)-4H-chromen-4-one]	> 100000	–	Pgp- and BCRP-dual selectivity	>845.3	–	340	–	–	>294.1	–	–	–
O=c1cc(-c2ccc(OCCOCCOCCn3cc(CN(Cc4ccccc4)Cc4cn(CCOCCOCCOc5ccc(-c6cc(=O)c7ccccc7o6)cc5)nn4)nn3)cc2)oc2ccccc12 [Ac15Az2, 2,2′-((((((((4,4′-((Benzylazanediyl)bis(methylene))bis(1H-1,2,3-triazole-4,1-diyl))bis(ethane-2,1-diyl))bis(oxy))bis(ethane-2,1-diyl))bis(oxy))bis(ethane-2,1-diyl))bis(oxy))bis(4,1-phenylene))bis(4H-chromen-4-one)]	> 100000	530 ± 120	mono-MRP1 selectivity	–	>188.7	–	550	>181.8	–	–	–	–
Cc1ccc2oc(-c3ccc(OCCOCCOCCn4cc(CN(Cc5ccccc5)Cc5cn(CCOCCOCCOc6ccc(-c7cc(=O)c8cc(C)ccc8o7)cc6)nn5)nn4)cc3)cc(=O)c2c1 [Ac15Az3, 2,2′-((((((((4,4′-((Benzylazanediyl)bis(methylene))bis(1H-1,2,3-triazole-4,1-diyl))bis(ethane-2,1-diyl))bis(oxy))bis(ethane-2,1-diyl))bis(oxy))bis(ethane-2,1-diyl))bis(oxy))bis(4,1-phenylene))bis(6-methyl-4H-chromen-4-one)]	> 100000	–	MRP1- and BCRP-dual selectivity	–	>210.5	–	535 ± 62.6	>186.9	–	36 ± 4	–	–
O=c1cc(-c2ccccc2)oc2cc(OCCN(Cc3ccccc3)Cc3cn(CCOc4ccc5c(=O)cc(-c6ccccc6)oc5c4)nn3)ccc12 [Ac16Az13, 7-(2-(Benzyl((1-(2-((4-oxo-2-phenyl-4H-chromen-7-yl)oxy)ethyl)-1H-1,2,3-triazol-4-yl)methyl)amino)ethoxy)-2-phenyl-4H-chromen-4-one]	> 100000	590	–	–	>169.5	–	–	–	–	–	–	–
CC[C@]1(O)C[C@H]2CN(CCc3c([nH]c4ccccc34)[C@@](C(=O)OC)(c3cc4c(cc3OC)N(C=O)[C@H]3[C@@](O)(C(=O)OC)[C@H](OC(C)=O)[C@]5(CC)C=CCN6CC[C@]43[C@@H]65)C2)C1 [vincristine]	–	–	–	–	–	–	–	–	–	–	123	about 2.4 fold
